From the supplement of paper PMC11061612

Legend:
MKN1 (Gastric Carcinoma) [1] = experiment: combination Emax (second highest fraction inhibited in the dose matrix, 72 h); higher = more inhibition; extreme values may be limits of the assay
Summary of the method: (§1)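 After 24 hours at 37°C and 5% CO2 in 1536-well plates, cells in DMEM/F12 or RPMI plus 10% FBS received two-drug dose matrices for 72 hours. Viability came from CellTiter-Glo 2.0 luminescence and was scaled as inhibition, anchored at 0 by vehicle wells and at 1 by blank wells. Combination Emax is taken as the second-highest inhibition in the matrix, and Bliss excess as the observed combination effect less EA + EB − EA·EB, with EA and EB the single-agent effects.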

[2] = tested on: NCI-H841 (Small Cell Lung Carcinoma); experiment: as above
Summary of the method: as §1

WM1552C (Melanoma) = experiment: Bliss excess, mean over the matrix (fraction); higher = more synergy
Summary of the method: as §1

MKN1 (Gastric Carcinoma) [3] = experiment: as above
Summary of the method: as §1

[4] = tested on: NCI-H841 (Small Cell Lung Carcinoma); experiment: as above
Summary of the method: as §1

EB2 (Burkitt's Lymphoma) = experiment: as above
Summary of the method: as §1

[5] = tested on: MHH-ES-1 (Ewing's Sarcoma); experiment: as above
Summary of the method: as §1

[6] = tested on: KYSE-220 (Esophageal Squamous Cell Carcinoma); experiment: as above
Summary of the method: as §1

[7] = tested on: HCC1395 (Breast Carcinoma); experiment: as above
Summary of the method: as §1
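Wherever Bliss excess, mean over the matrix is given: after 72 h of two-drug dosing.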

| SMILES | combination Emax (MKN1 (Gastric Carcinoma) [1]) | combination Emax [2] | Bliss excess (WM1552C (Melanoma)) | Bliss excess (MKN1 (Gastric Carcinoma) [3]) | Bliss excess [4] | Bliss excess (EB2 (Burkitt's Lymphoma)) | Bliss excess [5] | Bliss excess [6] | Bliss excess [7] |
| --- | --- | --- | --- | --- | --- | --- | --- | --- | --- |
| C[C@@H](Nc1cc(F)cc(F)c1)c1cc(C(=O)N(C)C)cc2c(=O)cc(N3CCOCC3)oc12 [AZD8186] + CC(=O)c1c(C)c2cnc(Nc3ccc(N4CCNCC4)cn3)nc2n(C2CCCC2)c1=O [Palbociclib] (first compound max 10 µM, 7x7, partner max 10 µM) | 0.674 | 0.266 | -0.0163 | 0.0017 | 0.0118 | 0.0045 | 0.108 | -0.0494 | 0.063 |
| C[C@@H]1COCCN1c1cc(C2([S@](C)(=N)=O)CC2)nc(-c2ccnc3[nH]ccc23)n1 [AZD6738] + C1CC(C1)(C(=O)[O-])C(=O)[O-].N.N.[Pt+2] [Carboplatin] (first compound max 10 µM, 7x7, partner max 10 µM) | 0.85 | 0.503 | -0.0299 | -0.0424 | -0.0587 | -0.0316 | -0.0078 | -0.0021 | -0.0573 |
| CC1(C)CCC(CN2CCN(c3ccc(C(=O)NS(=O)(=O)c4ccc(NCC5CCOCC5)c([N+](=O)[O-])c4)c(Oc4cnc5[nH]ccc5c4)c3)CC2)=C(c2ccc(Cl)cc2)C1 [Venetoclax] + CS(=O)(=O)CCNCc1ccc(-c2ccc3ncnc(Nc4ccc(OCc5cccc(F)c5)c(Cl)c4)c3c2)o1 [Lapatinib] (first compound max 1 µM, 7x7, partner max 10 µM) | 0.433 | 0.13 | -0.0328 | -0.0194 | -0.0506 | -0.039 | 0.0086 | -0.0233 | -0.0509 |
| C[C@@H](Oc1cc(-c2cnn(C3CCNCC3)c2)cnc1N)c1c(Cl)ccc(F)c1Cl [Crizotinib] + CC1=C(C(=CC=C1)Cl)NC(=O)C2=CN=C(S2)NC3=CC(=NC(=N3)C)N4CCN(CC4)CCO [Dasatinib] (first compound max 10 µM, 7x7, partner max 2 µM) | 0.866 | 0.301 | 0.0392 | 0.0586 | -0.0089 | 0.0112 | -0.0279 | -0.0166 | 0.0615 |
| C[C@@H](Oc1cc(-c2cnn(C3CCNCC3)c2)cnc1N)c1c(Cl)ccc(F)c1Cl [Crizotinib] + Cn1cnc2c(F)c(Nc3ccc(Br)cc3Cl)c(C(=O)NOCCO)cc21 [Selumetinib] (first compound max 10 µM, 7x7, partner max 10 µM) | 0.561 | 0.202 | -0.0338 | 0.0001 | -0.0528 | -0.0748 | -0.0236 | 0.0436 | -0.0786 |
| CS(=O)(=O)CCNCc1ccc(-c2ccc3ncnc(Nc4ccc(OCc5cccc(F)c5)c(Cl)c4)c3c2)o1 [Lapatinib] + Cn1cnc2c(F)c(Nc3ccc(Br)cc3Cl)c(C(=O)NOCCO)cc21 [Selumetinib] (first compound max 10 µM, 7x7, partner max 10 µM) | 0.596 | 0.303 | -0.0077 | -0.002 | 0.0251 | -0.0474 | 0.0015 | -0.0056 | -0.0343 |
| C[C@@H]1COCCN1c1cc(C2([S@](C)(=N)=O)CC2)nc(-c2ccnc3[nH]ccc23)n1 [AZD6738] + Nc1ccn([C@@H]2O[C@H](CO)[C@@H](O)C2(F)F)c(=O)n1 [Gemcitabine] (first compound max 10 µM, 7x7, partner max 0.3 µM) | 0.951 | 0.829 | 0.0225 | 0.0369 | 0.0975 | 0.0068 | 0.0624 | -0.0686 | 0.0334 |
| C[C@@H](Nc1cc(F)cc(F)c1)c1cc(C(=O)N(C)C)cc2c(=O)cc(N3CCOCC3)oc12 [AZD8186] + C1CN(CCC1(C(=O)N[C@@H](CCO)C2=CC=C(C=C2)Cl)N)C3=NC=NC4=C3C=CN4 [AZD5363] (first compound max 10 µM, 7x7, partner max 10 µM) | 0.491 | 0.293 | -0.0322 | -0.0304 | -0.025 | -0.0292 | 0.0026 | -0.0132 | 0.0007 |
| Cc1c2c(nn1C)CSCc1cc(n(C)n1)CSc1cc(c3ccccc3c1)OCCCc1c(C(=O)O)n(C)c3c-2c(Cl)ccc13 [AZD5991] + Nc1ccn([C@@H]2O[C@H](CO)[C@@H](O)C2(F)F)c(=O)n1 [Gemcitabine] (first compound max 1 µM, 7x7, partner max 0.3 µM) | 0.624 | 0.567 | -0.0232 | -0.0205 | 0.0135 | -0.0405 |  | 0.0842 | -0.0262 |
